Measurements published in patent US20240002379A1, “ASYMMETRIC CONJUGATE COMPOUNDS” (Pheon Therapeutics Ltd., priority 2016, published 2024).

Legend:
[1] = tested on: TyrT DNA fragment; assay: DNA cleavage assay, TyrT fragment; format: biochemical
Protocol: The ability of 13 and of a series of compounds to cleave double-stranded DNA was investigated using a modification of the previously established DNA footprinting assay (34). Following an overnight incubation of the ligand-DNA complexes, the mixture was mixed with strand separation buffer containing 10 mM EDTA, 10 mM NaOH, 0.1% bromophenol blue, 80% formamide and incubated at 100° C. for 3 min. The mixture was then immediately cooled on ice and run on an 8% denaturing gel. […] Using the GA marker, these additional bands were identified as cleavage products produced by 13 at certain A sites of the DNA fragment.
The preparation of the TyrT DNA fragment (FIG. 8) and HexARev DNA fragment (FIG. 15) have been previously described (34). Briefly, the sequence which had been cloned into the BamHI site of pUC18 was obtained by cutting with HindIII and EcoRI. Radiolabelled DNA fragments were prepared by filling in the 3′-end of the HindIII site with [α-^32P]dATP using Klenow DNA polymerase (exo-).
The radiolabelled DNA fragment was separated from the remainder of the plasmid DNA on a 6% non-denaturing polyacrylamide gel. The gel (20 cm long, 0.3 mm thick) was run at 400 V in 1×TBE running buffer for about 1-2 h, until the bromophenol blue had run most of the way down the gel. […]

[2] = tested on: fluorescently labelled DNA duplex 5′-[…]-3′; assay: FRET DNA melting, FIG. 17 middle sequence; format: binding; conditions: suggests interstrand cross-link formation
From the text: Further FRET DNA melting studies were undertaken on a number of molecules using three fluorescently labelled sequences. The sequences (FIG. 17) were designed to provide additional evidence that the series can form inter- and intrastrand cross-links. Inosines were inserted in place of traditional DNA bases in some cases to limit the number of binding sites available for the compounds to interact with. The short duplexes used in this FRET study are relatively unstable in the duplex form with a melting temperature below 30° C. so that, in the absence of ligand, a large part of the melting occurs below the starting temperature of the experiment. […] Increasing concentrations of 13 cause a greater amount of the melting transition to appear at the higher temperature (i.e. a greater number of the DNA molecules are cross-linked). […]
The reaction mixture was comprised of 4 μL of 250 mM phosphate buffer (final concentration of 50 mM), 4 μL flourophor and 4 μL quencher molecule of the appropriate oligonucleotide for a final concentration of 0.2 PM, 4 μL 5 M sodium chloride (final concentration of 1 M NaCl), and 4 μL of distilled H2O. […] This mixture was analysed without prior annealing.
Fluorescence melting profiles were measured using a Roche LightCycler using a total reaction volume of 20 μL. […] Annealing steps and melting steps were all recorded and changes in fluorescence were measured at 520 nm. […]

[3] = tested on: three fluorescently labelled DNA sequences shown in FIG. 17; assay: FRET DNA melting, the three DNA sequences shown in FIG. 17 together; format: binding; conditions: different concentrations, all three sequences, vs control DNA
From the text: Further FRET DNA melting studies were undertaken on a number of molecules using three fluorescently labelled sequences. The sequences (FIG. 17) were designed to provide additional evidence that the series can form inter- and intrastrand cross-links. Inosines were inserted in place of traditional DNA bases in some cases to limit the number of binding sites available for the compounds to interact with. The short duplexes used in this FRET study are relatively unstable in the duplex form with a melting temperature below 30° C. so that, in the absence of ligand, a large part of the melting occurs below the starting temperature of the experiment. […] Increasing concentrations of 13 cause a greater amount of the melting transition to appear at the higher temperature (i.e. a greater number of the DNA molecules are cross-linked). A greater effect for 5′-AIIAGAITTTI′-3′ can be observed at lower concentrations of 13.
Oligonucleotides were obtained from ATDbio (Southampton, UK) in lyophilised form. They were labelled with a fluorophore molecule (F=fluorescein) at the 5′-end and a quencher molecule (Q=dabcyl) at the 3′-end of the complementary strand. Each oligonucleotide was dissolved in distilled H2O to form stock solutions of 100 PM. Working solutions of 5 μM were prepared by diluting the stock solution with distilled H2O.
The following buffers were used: 250 mM phosphate buffer pH 7.4 (consisting of sodium dihydrogen phosphate and sodium phosphate diluted in distilled H2O) and 5 M sodium chloride buffer. A11 buffers and distilled H2O were filtered through a […] filter prior to use.
For the FRET experiments a stock solutions were prepared by dissolving compound (such as compound 13) in DMSO to give a concentration of 10 mM. From this stock solution, working solutions of the desired concentration were prepared by diluting the stock solution with distilled H2O.
The reaction mixture was comprised of 4 μL of 250 mM phosphate buffer (final concentration of 50 mM), 4 μL flourophor and 4 μL quencher molecule of the appropriate oligonucleotide for a final concentration of 0.2 PM, 4 μL 5 M sodium chloride (final concentration of 1 M NaCl), and 4 μL of distilled H2O. This mixture was heated in an Eppendorf tube at 90° C. for 1 min and slowly cooled down to room temperature. This process was carried out to anneal the single strands to double-stranded DNA. Following this, 4 μL of the ligand was added in the desired concentration and the mixture incubated overnight either at room temperature or 4° C. A control sample of DNA only was prepared by mixing 4 μL 250 mM phosphate buffer (final concentration of 50 mM) with 4 μL fluorophore-labelled and 4 μL quencher-labelled oligonucleotides (of the appropriate sequence) to give a final concentration of 0.2 PM, 4 μL 5 M sodium chloride (final concentration of 1 M NaCl) and 4 μL distilled H2O. This mixture was analysed without prior annealing.
Fluorescence melting profiles were measured using a Roche LightCycler using a total reaction volume of 20 μL. Initially, the samples were denatured by heating to 95° C. at a rate of 1° C. min^−1. The samples were then maintained at 95° C. for 5 min before annealing by cooling to 25° C. at 1° C. min^−1. The samples were then held at 25° C. for a further 5 min and finally melted by heating to 95° C. at 1° C. min^−1. Annealing steps and melting steps were all recorded and changes in fluorescence were measured at 520 nm.
Tm values were obtained from the first derivates of the melting profiles using the Roche LightCycler software.

| SMILES | number of preferred sites observed in the TyrT DNA fragment ([1]; cleavage at A sites) | cleavage of TyrT DNA fragment ([1]; overnight incubation, 100° C. for 3 min, 8% denaturing gel (FIG. 11)) | Tm value [2] | effect on melting temperature / DNA stabilisation [3] |
| --- | --- | --- | --- | --- |
| COc1cc2c(cc1OCCCC(=O)N1C[C@@H](CCl)c3c1cc(O)c1ccccc31)N=C[C@@H]1CCCCN1C2=O [Compound 13, (S)-3-(4-((S)-1-(Chloromethyl)-5-hydroxy-1,2-dihydro-3H-benzo[e]indol-3-yl)-4-oxobutoxy)-2-methoxy-7,8,9,10-tetrahydrobenzo[e]-pyrido[1,2-a][1,4]diazepin-12(6aH)-one] | three | distinct cleavage patterns | – | – |
| COc1cc2c(cc1OCc1cccc(CC(=O)N3C[C@@H](CCl)c4c3cc(O)c3ccccc43)c1)N=C[C@@H]1CCCCN1C2=O [Compound 42, (S)-3-((3-(2-((S)-1-(Chloromethyl)-5-hydroxy-1,2-dihydro-3H-benzo[e]indol-3-yl)-2-oxoethyl)benzyl)oxy)-2-methoxy-7,8,9,10-tetrahydrobenzo[e]pyrido[1,2-a][1,4]diazepin-12(6aH)-one] | – | – | ~80 °C | increases significantly |
